Measurements reported in US9663764B2, “Generation of cardiomyocytes from human pluripotent stem cells” (Wisconsin Alumni Research Foundation, priority 2011, dated 2017).

Experiments:
Format in all cases: cell-based, human
[1] = tested on: 19-9-11 shcat-2 and scramble lines; test: Flow cytometry of Oct4 and brachyury in CH-treated 19-9-11 shcat-2 and scramble lines; conditions: for cells expressing Oct4: 4 days of CH (12 μM) in mTeSR1
Protocol: Flow Cytometry: Cells were dissociated into single cells and then fixed with 1% paraformaldehyde for 20 min at room temperature and stained with primary and secondary antibodies in PBS plus 0.1% Triton X-100 and 0.5% BSA. For the cell proliferation assay, a 17-hour pulse of BrdU was performed to identify dividing cardiomyocytes (Zhang et al., Circ. Res. 104, e30-41 (2009)). Data were collected on a FACSCaliber flow cytometer (Beckton Dickinson) and analyzed using FlowJo. To test whether induction of cardiomyocyte differentiation by GSK3 inhibitors requires β-catenin, the inventors treated the shcat-2 and scramble 19-9-11 lines with CH in mTeSR1 medium. While the shcat-2 line maintained an undifferentiated morphology, the scramble line appeared to undergo differentiation (FIG. 2E), similar to non-transduced lines treated with CH (FIGS. 1B and 2B). Induction of differentiation following CH treatment in the scramble control was further indicated by diminished SOX2 and NANOG expression at day 4 (FIG. 3C). […] After 4 days of CH treatment in mTeSR1, the percentage of cells expressing Oct4 decreased to 61% in the scramble line, while 98% of the shcat-2 cells expressed Oct4 (FIG. 3D). […] To better understand early mesoderm induction via GSK3 inhibition, the inventors analyzed expression of the early mesoderm gene T in scramble and shcat-2 19-9-11 lines. As CH concentration increased, the ratio of T expression in scramble to the shcat-2 line increased (FIG. 3E). Less than 2% of shcat-2 cells expressed brachyury upon exposure to different concentrations of CH treatment for 4 days.

[2] = tested on: 19-9-11 and IMR90C4 iPSCs; test: Cardiac directed differentiation via small molecules on Synthemax plates, cTnT/MF20 flow cytometry; conditions: 12 μM CH at day 0 and 5 μM IWP4 at day 3, day 15
Protocol: (§1) cardiac directed differentiation via small molecules: Cells were dissociated and plated as described in the Activin/BMP4 protocol. When hPS cells maintained on Matrigel® or Synthemax plates achieved confluence, cells were treated with CH in RPMI/B27-insulin for 24 hr (day 0 to day 1). The medium was changed to RPMI/B27-insulin, followed by 2 μg/ml dox treatment at different times between day 1 and day 5 for transgenic cell lines. For genetically unmodified lines, 5 μM IWP2 (Tocris) or IWP4 (Stemgent) was added at day 3 and removed during the day 5 medium change. Cells were maintained in the RPMI/B27 starting from day 7, with the medium changed every 3 days.
(§2) Flow Cytometry: Cells were dissociated into single cells and then fixed with 1% paraformaldehyde for 20 min at room temperature and stained with primary and secondary antibodies in PBS plus 0.1% Triton X-100 and 0.5% BSA. For the cell proliferation assay, a 17-hour pulse of BrdU was performed to identify dividing cardiomyocytes (Zhang et al., Circ. Res. 104, e30-41 (2009)). Data were collected on a FACSCaliber flow cytometer (Beckton Dickinson) and analyzed using FlowJo.
While shRNA inhibition of β-catenin provides specific and facile temporal regulation of canonical Wnt signaling, this method requires genetic modification of the hPS cell line which limits its potential clinical utility. […]

[3] = tested on: H9 hESCs; test: Activin A/BMP4 directed cardiac differentiation with GSK3 inhibitor pretreatment, cTnT flow cytometry; conditions: GSK3 inhibitor (1 μM) 3 days prior to Activin A and BMP4; day 15; average
Protocol: Cardiac directed differentiation using Activin A and BMP4: hPS cells maintained on Matrigel® in mTeSR1 were dissociated into single cells with Accutase (Invitrogen) at 37° C. for 5 min and then seeded onto a Matrigel®-coated cell culture dish at 100,000 cell/cm^2 in mTeSR1 supplemented with 5 μM ROCK inhibitor (Y-27632, Stemgent) (day −5). Cells were cultured in mTeSR1, changed daily. At day 0, cells were treated with 100 ng/ml Activin A (R&D) in RPMI/B27-insulin. After 24 hr, the medium was changed to RPMI/B27-insulin supplemented with 5 ng/ml BMP4 (R&D) for another 4 days. At day 5, the medium was changed with RPMI/B27-insulin. At day 7 the cells were transferred to RPMI/B27, and medim changed every 3 days. When using GSK3 inhibitors to stimulate differentiation, cells were cultured in mTeSR1 containing BIO or CHIR99021 from day −3 to day 0.
as §2
Undifferentiated H9 hESCs were cultured in the presence of 0-8 μM CH for three days prior to EB formation. EBs were cultured in suspension for 4 days before transferring to 0.1% gelatin coated plates. […] The inventors also applied the GSK3 inhibitors CH and BIO to undifferentiated H9 hESCs three days prior to directed differentiation to cardiomyocytes via Activin A and BMP4.

[4] = tested on: 19-9-11 iPSCs; test: Cardiac directed differentiation via small molecules on Matrigel, cTnT/MF20 flow cytometry; conditions: 12 μM CH treatment alone, after 15 days
Protocol: as §1, §2
While shRNA inhibition of β-catenin provides specific and facile temporal regulation of canonical Wnt signaling, this method requires genetic modification of the hPS cell line which limits its potential clinical utility. The inventors next used the mechanistic insight these modified lines provided regarding the sufficiency of canonical Wnt signaling in cardiomyogenesis to develop a completely defined, growth factor free method of efficiently generating cardiomyocytes from unmodified hPS cell lines using small molecules. First, 19-9-11 iPSCs were maintained in mTeSR1 on Matrigel® for five days, and then the medium was switched to RPMI/B27-insulin containing 12 μM CH. IWP4 and IWP2, which prevent palmitylation of Wnt proteins by porcupine thereby blocking Wnt protein secretion and activity (Chen et al., Nat. Chem. Biol. 5:100-107 (2009)), were used to inhibit Wnt signaling. […] Similar to results obtained with the 19-9-11 ishcat-1 cell line, CH treatment of 19-9-11 cells alone only generated 16% cTNT+ or MF20+ cells after 15 days, while adding 5 μM IWP4 or IWP2 at day 3 increased this to 87% cTNT+ or MF20+ cells. […] In order to achieve fully defined culture conditions, Matrigel® was replaced with a defined peptide acrylate surface (Synthemax) during both hPS cell expansion and differentiation. […] Thus, optimization of canonical WNT signaling via stage-specific addition of small molecule agonists and antagonists produces high yields of functional cardiomyocytes in a completely defined, growth factor free culture system.

Cc1c[nH]c(-c2cnc(NCCNc3ccc(C#N)cn3)nc2-c2ccc(Cl)cc2Cl)n1 [CH]
brachyury+ cells ([1]; scramble line, 15 μM CH for 4 days): 76% | cells expressing Oct4 ([1]; scramble line): 61% | cells expressing Oct4 ([1]; shcat-2 cells): 98% | cells expressing brachyury ([1]; shcat-2 cells, different concentrations of CH for 4 days): Less than 2% | cTNT+ or MF20+ cells [2]: approximately 85% | cTNT-labeled cells [3]: 50% | cTNT+ or MF20+ cells [4]: 16%
